Test results: paper PMC6928345, “Detection and functional characterization of sigma class GST in Phlebotomus argentipes and its role in stress tolerance and DDT resistance” (Scientific Reports, 2019)

What was measured:
[1] = target: T1, rParg-GSTσ (sigma class GST of P. argentipes) (Phlebotomus argentipes, UniProt A0A5A4I953); assay: spectrophotometric GSH conjugation assay, […] nm; type: biochemical; details: 1 mM GSH, CDNB 0.07–8 mM, sodium phosphate pH 6.5, room temperature
T1 construct: PCR primers designed on P. papatasi GSTσ
T1 sequence (A0A5A4I953 1-203): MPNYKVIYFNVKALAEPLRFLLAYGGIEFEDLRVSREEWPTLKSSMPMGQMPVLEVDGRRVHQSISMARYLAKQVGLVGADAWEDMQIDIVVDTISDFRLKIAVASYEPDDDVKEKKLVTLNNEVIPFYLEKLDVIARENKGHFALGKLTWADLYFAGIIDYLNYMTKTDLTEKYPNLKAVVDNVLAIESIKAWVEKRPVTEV

[2] = target: T1, rParg-GSTσ (sigma class GST of P. argentipes); assay: inhibition of GST activity, residual activity; type: biochemical
purified protein [3] = substrate: CC(C)(OO)c1ccccc1; assay: purified protein; type: biochemical, Phlebotomus argentipes; details: 1 mM GSH, 0.2 mM NADPH, 1 mM EDTA, cumene hydroperoxide 0.08–1.0 mM, sodium phosphate buffer
purified protein [4] = substrate: CCCCCC(O)/C=C/C=O; assay: purified protein; type: biochemical, Phlebotomus argentipes; details: 1 mM GSH, 4-HNE 10–100 µM, sodium phosphate buffer

Molecule: O=[N+]([O-])c1ccc(Cl)c([N+](=O)[O-])c1 [CDNB]
- Km [1]: 390 µM

Molecule: C=C(CC)C(=O)c1ccc(OCC(=O)O)c(Cl)c1Cl [Ethacrynic acid]
- IC50 [2]: 50 nM

B1: rParg-GSTσ (sigma class GST of P. argentipes) (Phlebotomus argentipes) (protein)
chain: MPNYKVIYFNVKALAEPLRFLLAYGGIEFEDLRVSREEWPTLKSSMPMGQMPVLEVDGRRVHQSISMARYLAKQVGLVGADAWEDMQIDIVVDTISDFRLKIAVASYEPDDDVKEKKLVTLNNEVIPFYLEKLDVIARENKGHFALGKLTWADLYFAGIIDYLNYMTKTDLTEKYPNLKAVVDNVLAIESIKAWVEKRPVTEV
notes: PCR primers designed on P. papatasi GSTσ
- Km (purified protein [3]): 180 µM
- Km (purified protein [4]): 5.02 µM
